Measured values from ChEMBL document CHEMBL1152390, “Macrophyllin-type bicyclo[3.2.1]octanoid neolignans from the leaves of Pleurothyrium cinereum” (J Nat Prod, 2009).

Columns and labels:
[1] = system: Salmonella enterica subsp. enterica; assay: Antibacterial activity against Salmonella Typhimurium ATCC 14028s by radial diffusion assay; format: functional, Salmonella enterica subsp. enterica serovar Typhimurium
[2] = system: Mycobacterium tuberculosis; assay: Antituberculosis activity against Mycobacterium tuberculosis H37Rv assessed as parasite growth inhibition at 25 ug/ml after 4 days by microplate alamar blue assay; format: functional; conditions: 96 h, read-out: GI
[3] = system: Salmonella enterica subsp. enterica; assay: Antibacterial activity against Salmonella Typhimurium EG10627 by radial diffusion assay; format: functional, Salmonella enterica subsp. enterica serovar Typhimurium
[4] = system: Mycobacterium tuberculosis; assay: Antituberculosis activity against Mycobacterium tuberculosis H37Rv assessed as parasite growth inhibition at 50 ug/ml after 4 days by microplate alamar blue assay; format: functional; conditions: 96 h, read-out: GI
Escherichia coli = assay: Antibacterial activity against Escherichia coli ATCC 25922 by radial diffusion assay; format: functional
Enterococcus faecalis = assay: Antibacterial activity against Enterococcus faecalis ATCC 29212 by radial diffusion assay; format: functional
[5] = system: Mycobacterium tuberculosis; assay: Antituberculosis activity against Mycobacterium tuberculosis H37Rv assessed as parasite growth inhibition at 100 ug/ml after 4 days by microplate alamar blue assay; format: functional; conditions: 96 h, read-out: GI
[6] = system: Salmonella enterica subsp. enterica; assay: Antibacterial activity against Salmonella Typhimurium MS 7953 by radial diffusion assay; format: functional, Salmonella enterica subsp. enterica serovar Typhimurium
[7] = Antiplatelet activity in rabbit platelets assessed as inhibition of PAF-induced platelet aggregation treated 5 mins before PAF challenge; format: functional, cell-based; conditions: Oryctolagus cuniculus
Staphylococcus aureus = assay: Antibacterial activity against Staphylococcus aureus ATCC 65380 by radial diffusion assay; format: functional

Row | Compound | growth inhibition (GI) [1] [%] | inhibition of growth at 25 µg/mL [2] [%] | growth inhibition (GI) [3] [%] | inhibition of growth at 50 µg/mL [4] [%] | growth inhibition (GI) (Escherichia coli) [%] | growth inhibition (GI) (Enterococcus faecalis) [%] | inhibition of growth at 100 µg/mL [5] [%] | growth inhibition (GI) [6] [%] | IC50 [7] [µM] | growth inhibition (GI) (Staphylococcus aureus) [%]
1 | C=CCC1=C[C@]2(OC)C(=O)[C@@](OC)(C1=O)[C@H](c1cc(OC)c3c(c1)OCO3)[C@H]2C [CINERIN A] | <30 | 2.5 | <30 | 7.2 | <30 | <30 | 8.1 | <30 | 16.8 | <30
2 | C=CCC1=C[C@@]2(OC)[C@H](C)[C@@H](c3cc(OC)c4c(c3)OCO4)[C@H](C1=O)[C@@H]2O [CINERIN B] | <30 | 13.9 | <30 | 20.9 | <30 | <30 | 19.5 | <30 | 1.5 | <30
3 | C=CCC1=C[C@]2(OC)[C@H](C)[C@@H](c3cc(OC)c4c(c3)OCO4)[C@](OC)(C1=O)[C@H]2O [CINERIN C] | <30 | 43.8 | <30 | 49.8 | <30 | <30 | 49.4 | <30 | 1.1 | <30
4 | C=CCC1=C[C@@]2(OC)C(=O)[C@](OC)([C@H](c3cc(OC)c4c(c3)OCO4)[C@H]2C)[C@H]1O [CINERIN D] | <30 | 1.3 | <30 | 6.2 | <30 | <30 | 7.3 | <30 | 6.6 | <30
5 | C[C@@H]1C(=O)O[C@H]2[C@H](O)[C@@]34[C@H]5C[C@@H](C(C)(C)C)[C@]36[C@@H](OC(=O)[C@@H]6O)O[C@@]4(C(=O)O5)[C@@]12O [GINKOLIDE B] |  |  |  |  |  |  |  |  | 0.93 | 
6 | NNC(=O)c1ccncc1 [ISONIAZID] |  | 94.2 |  |  |  |  |  |  |  | 
7 | C=CCC1=C[C@@]2(OC)C(=CC1=O)O[C@H](c1ccc(OC)c(OC)c1)[C@H]2C [KADSURENONE] |  |  |  |  |  |  |  |  | 0.12 | 
8 | C=C1C[C@@]23CC[C@H]4[C@@](C)(CCC[C@@]4(C)C(=O)O)[C@@H]2CC[C@@H]1C3 [KAURENOIC ACID] | <30 | 88.6 | <30 | 91.3 | <30 | <30 | 94.2 | <30 |  | <30
9 | CO[C@H]1/C=C/O[C@@]2(C)Oc3c(C)c(O)c4c(O)c(c(/C=N/N5CCN(C)CC5)c(O)c4c3C2=O)NC(=O)/C(C)=C\C=C\[C@H](C)[C@H](O)[C@@H](C)[C@@H](O)[C@@H](C)[C@H](OC(C)=O)[C@@H]1C [RIFAMPIN] |  | 97.6 |  |  |  |  |  |  |  | 
